# Results as given in patent US10668048B2, “Compounds for inhibiting bacterial growth via phosphatidylglycerol binding” (Wichita State University, priority 2016, dated 2020).
# Key:
# [1] = system: E. coli, Staphylococcus aureus, Enterococcus faecalis; experiment: MIC of liptin 3e, overall statement; format: cell-based; settings: LB culture
# Description: An E. Coli (JMR 223-MC4100) plate was grown up overnight in LB agar at 37° C. A good colony was selected and added to 5 mL LB growth media. This was incubated at 37° C. with shaking at 250 rpm until the solution reaches an OD of at least 0.5 or higher at 600 nm. A final solution was diluted 500× to an OD of 0.001, correlating to a CFU of 1×10^6. 5 ml solutions of the diluted bacterial broth were measured out. Liptins were added to make solutions of 20 μM, 15 μM, 10 μM, 5 μM, 4 μM, 3 μM, 2 μM, and 1 μM (This means adding 0.2 mL, 0.15 mL, 0.1 mL, 0.05 mL, 0.04 mL, 0.03 mL, 0.02 mL, 0.01 mL of the 500 μM solution). Cultures were allowed to incubate overnight at 37° C. with shaking at 250 rpm. The following day, cultures were analyzed to evaluate the presence or absence of bacterial growth by spectrophotometry at 600 nm (0.66 mg of liptin in 0.95 mL of water; 0.15 OD Diluted 150× to OD of 0.001).
# [2] = Carboxyfluorescein efflux from pure PG vesicles; format: biochemical; settings: room temperature, after three hours
# Description: Liptin/bilayer interactions were evaluated using conventional efflux measurements. These experiments make use of the self-quenching fluorescence of carboxyfluorescein. At relatively high concentrations (ca. 50 mM) the fluorescence from carboxyfluorescein is diminished by approximately 70% due to intermolecular interactions.
# To perform efflux experiments vesicles were prepared by rehydrating a film of pure DPPG with a 50 mM solution of carboxyfluorescein in buffer. The solution was then extruded through a polycarbonate membrane with 200 nm pore size. […] Under these conditions, as the dye leaves the vesicles by efflux, fluorescence intensity increases. Monitoring the fluorescence intensity over time provides a measure of the rate at which dye crosses the membrane and an indication of the “leakiness” of the vesicle bilayer. Efflux can be expressed as % Efflux by the following expression:
# [formula] where F0 is the fluorescence intensity corresponding to the initial sample when efflux first begins and F∞ is the intensity after efflux is complete and is determined by rupturing the vesicles by the addition of a small amount of concentrated detergent. F(t) is the fluorescence intensity measured as the efflux occurs. […]
# [3] = FCS binding of liptin to PG at the membrane interface (liposomes, surfactant vesicles)
# Description: The porphyrin 3e was used to examine the liptin's affinity and selectivity for PG when PG was present as part of a membrane bilayer. In this example, fluorescence correlation spectroscopy (FCS) was used to measure the fraction of liptin bound to surfactant vesicles or liposomes containing a known amount of PG. This approach is fast, reliable and accurate, and is possible when the liptin is a stable fluorophore, as in the case of 3e.
# FCS results are evaluated by treating the time dependent fluorescence intensity acquired from a dilute solution of the liptin using a focused laser beam as the excitation source. Temporal fluctuations in the fluorescence intensity are a result of the diffusion of the liptin through the focused laser beam. When the liptin binds to a vesicle, its apparent diffusion coefficient decreases by two orders of magnitude.
# FIG. panels 9A and 9C contain examples of autocorrelation decays for liptin 3e in with liposomes (FIG. 9A) and surfactant vesicles (FIG. 9C) containing varying amounts of PG. Specifically, FIG. 9 illustrates an autocorrelation analysis of liptin 3e binding to PG-doped membranes of liposomes and positively-charged surfactant vesicles. A) Autocorrelation decays for liptin with varying percentages of PG in PE liposome. B) Binding constant values as a function of PS and PG in PE liposome. C) Autocorrelation decays for liptin with varying percentages of PG in positively-charged surfactant vesicles. D) Binding constant of liptin with varying percentages of PG in positively-charged surfactant vesicles. […] In FIGS. 9A and 9C, the markers are the experimental data and the solid lines are the fits that determine the fraction of liptin bound, f. This quantity is then used to calculate the binding constant:
# [formula] where [R] is the total concentration of […], and it has been assumed that half of the PG is located on the membrane inner leaflet and thus not available for binding.
# [4] = system: Enterococcus faecalis 29213; experiment: MIC in LB culture; format: cell-based
# Description: Strep fuecalis (aka Enterococcus faecalis 29213) cultures were prepared the same way as S. aureus, and analyzed as above. […] The OD600 of the control was 0.72. […] See photos for visual representation. See FIG. 11D for a visual image of the S. fuecalis cultures.
compound,measurement,setting,value
NCC(=O)Nc1ccccc1-c1c2nc(c(-c3ccccc3NC(=O)CN)c3ccc([nH]3)c(-c3ccccc3NC(=O)CN)c3nc(c(-c4ccccc4NC(=O)CN)c4ccc1[nH]4)C=C3)C=C2.O=C(O)C(F)(F)F.O=C(O)C(F)(F)F.O=C(O)C(F)(F)F.O=C(O)C(F)(F)F [Liptin 3e],MIC,[1],less than 2 μM
same,% Efflux of carboxyfluorescein,[2],5%
same,PG binding affinities at the membrane interface,[3]; FCS,~10^4 M^−1
same,Ka,[3]; Lipid vesicles containing 10-30% PG,10^4
same,selectivity of binding PG vs phosphatidylserine (PS),[3]; lipid vesicles of binary mixtures of PG or PS with PE,selective for PG over the PS
same,binding to surfactant vesicle without PG,"[3]; no PG, only anionic component sodium dodecylbenzenesulfonate (SDBS)",Negligible binding
same,binding constant,[3]; surfactant vesicle with 1% of PG and 35% SDBS,47000 M⁻¹
same,effect on bacterial growth,[4],inhibits bacterial growth
